Test results published in patent US6743568B2, “Cyanine dyes” (Kabushiki Kaisha Hayashibara Seibutsu Kagaku Kenkyujo, priority 2000, dated 2004).
Read-outs that look alike come from different tables or passages of the source.

Assays:
[1] = Decomposition point of cyanine dye by DTA/TGA; assay type: physicochemical; details: temperature at which specimen begins to lose weight on TGA; heating rate 10° C./min
Description: An adequate amount of any one of the cyanine dyes in Table 1 as a test specimen was placed in a vessel and subjected to conventional differential thermal analysis (hereinafter abbreviated as “DTA”) and thermogravimetric analysis (hereinafter abbreviated as “TGA”) using “MODEL TG/DTA 220”, a digital thermo analyzer commercialized by Seiko Instruments Inc., Tokyo, Japan, to determine their decomposition points, i.e., temperatures at which the cyanine dyes as test specimens begin to lose their weight on TGA. In parallel, conventional related compounds represented by Chemical Formulae 73 and 76 were analyzed similarly as above. […] In DTA and TGA, the environmental temperature was set to an increasing temperature mode at a rate of 10° C./min.

[2] = Solubility of cyanine dye in DAA at 20° C.; assay type: physicochemical; details: in diacetone alcohol (DAA) at 20° C.
Description: For the cyanine dyes in Table 1, they were measured in a conventional manner for solubility in […] at 20° C. In parallel, conventional related compounds represented by Chemical Formulae 73 to 76 were also measured for solubility in DAA in a similar way.

[3] = diacetone alcohol (DAA), 20 °C, organic solvent or mixture, read-out: Solubility

Row | SMILES | Decomposition point (° C.) [1] | Solubility [2] | Solubility [2, 3]
1 | CCCCN1C(=CC=CC2=[N+](CC)c3ccc4ccccc4c3C2(C)C)C(C)(C)c2c1ccc1ccccc21 [Chemical Formula 74, reference compound] | 211.5 °C | 22 mg/mL | 
2 | CCCCN1C(=CC=CC2=[N+](C)c3ccc4ccccc4c3C2(C)C)C(C)(C)c2c1ccc1ccccc21 [Chemical Formula 14] | 279.8 °C | 73 mg/mL | 
3 | CCCCN1C(=CC=CC2=[N+](C)c3ccc4ccccc4c3C2(C)C)C(C)(C)c2c1ccc1ccccc21 [Chemical Formula 13] | 264.7 °C | 143 mg/mL | 
4 | CCCC[N+]1=C(C=CC=C2N(C)c3c(ccc4ccccc34)C2(C)C)C(C)(C)c2c1ccc1ccccc21 [Chemical Formula 50] | 261.3 °C |  | 64 mg/mL
5 | CCCCN1C(=CC=CC2=[N+](CC)c3ccc4ccccc4c3C2(C)C)C(C)(C)c2c1ccc1ccccc21 [Chemical Formula 19] | 281.6 °C | 23 mg/mL | 
6 | CCCCN1C(=CC=CC2=[N+](CCCC)c3ccc4ccccc4c3C2(C)C)C(C)(C)c2c1ccc1ccccc21 [Chemical Formula 76, reference compound] | 266.1 °C | 17 mg/mL | 
7 | CCCCN1C(=CC=CC2=[N+](CC)c3ccc4ccccc4c3C2(C)C)C(C)(C)c2c1ccc1ccccc21 [Chemical Formula 20] | 281.8 °C | 140 mg/mL | 
8 | CN1C(=CC=CC2=[N+](C)c3ccc4ccccc4c3C2(C)C)C(C)(C)c2c1ccc1ccccc21 [Chemical Formula 16] | 314.5 °C |  | 1.1 mg/mL
9 | CCCCN1/C(=C\C=C\C2=[N+](CCCC)c3ccc4ccccc4c3C2(C)C)C(C)(C)c2c1ccc1ccccc21 [Chemical Formula 35] | 280.1 °C | 6.4 mg/mL | 
10 | CCCCN1C(=CC=CC2=[N+](CCC)c3ccc4ccccc4c3C2(C)C)C(C)(C)c2c1ccc1ccccc21 [Chemical Formula 75, reference compound] | 269.0 °C |  | 19 mg/mL
11 | CCCN1C(=CC=CC2=[N+](CC)c3ccc4ccccc4c3C2(C)C)C(C)(C)c2c1ccc1ccccc21 [Chemical Formula 21] | 301.9 °C |  | 2.8 mg/mL
12 | CCCCN1C(=CC=CC2=[N+](CCCC)c3ccc4ccccc4c3C2(C)C)C(C)(C)c2c1ccc1ccccc21 [Chemical Formula 33] | 284.2 °C | 61 mg/mL | 
13 | CN1C(=CC=CC2=[N+](C)c3ccc4ccccc4c3C2(C)C)C(C)(C)c2ccc3ccccc3c21 [Chemical Formula 43] | 304.7 °C |  | 2.7 mg/mL
14 | CCCCN1C(=CC=CC2=[N+](C)c3ccc4ccccc4c3C2(C)C)C(C)(C)c2c1ccc1ccccc21 [Chemical Formula 73, reference compound] | 242.2 °C | 42 mg/mL | 
